Laboratory results from ChEMBL document CHEMBL1201862, “PubChem BioAssay data set” (2004).
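Following 48 hours of exposure in 96-well plates, responses at five concentrations were used to interpolate endpoints linearly. GI50 is the concentration that inhibits growth by half.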 Active and inactive are the calls of the source. No stated cut-off is given here; in the data, active = GI50 up to about 1.1 µM and inactive = higher.

What was measured:
Assay in all cases: DTP human tumour cell line panel, 48 h
LOX IMVI = tested on: LOX IMVI
UACC-62 = tested on: UACC-62
CCRF-CEM = tested on: CCRF-CEM
SW-620 = tested on: SW-620
OVCAR-4 = tested on: OVCAR-4
A498 = tested on: A498
HOP-62 = tested on: HOP-62
K562 = tested on: K562
MDA-MB-231 = tested on: MDA-MB-231
HCC 2998 = tested on: HCC 2998
KM12 = tested on: KM12
EKVX = tested on: EKVX
SF-295 = tested on: SF-295
RPMI-8226 = tested on: RPMI-8226
COLO 205 = tested on: COLO 205
SF-539 = tested on: SF-539
A549 = tested on: A549
MDA-MB-435 = tested on: MDA-MB-435
UACC-257 = tested on: UACC-257
OVCAR-3 = tested on: OVCAR-3

O=C(Nc1ccc2c(c1)oc(=O)c1ccccc12)C(Cl)Cl
GI50 (LOX IMVI): > 100 µM (inactive)
GI50 (UACC-62): 36.6 µM (inactive)
GI50 (CCRF-CEM): > 100 µM (inactive)
GI50 (SW-620): > 100 µM (inactive)
GI50 (OVCAR-4): > 10 µM (inactive)
GI50 (A498): > 100 µM (inactive)
GI50 (HOP-62): 62.1 µM (inactive)
GI50 (K562): 51.2 µM (inactive)
GI50 (MDA-MB-231): > 100 µM (inactive)
GI50 (HCC 2998): 63.5 µM (inactive)
GI50 (KM12): 33.2 µM (inactive)
GI50 (EKVX): 85.5 µM (inactive)
GI50 (SF-295): > 100 µM (inactive)
GI50 (RPMI-8226): 14.3 µM (inactive)
GI50 (COLO 205): 66.2 µM (inactive)
GI50 (SF-539): 69.7 µM (inactive)
GI50 (A549): 39.1 µM (inactive)
GI50 (MDA-MB-435): > 100 µM (inactive)
GI50 (UACC-257): > 100 µM (inactive)
GI50 (OVCAR-3): 28.8 µM (inactive)

CO/C=C(/C(=O)OC)c1ccccc1[C@H]1C[C@@H]1c1ccc(OC)cc1
GI50 (UACC-62): 23.1 µM (inactive)
GI50 (CCRF-CEM): 25.4 µM (inactive)
GI50 (OVCAR-4): 8.05 µM (inactive)
GI50 (A498): 28.1 µM (inactive)
GI50 (HOP-62): 33.9 µM (inactive)
GI50 (K562): 15.8 µM (inactive)
GI50 (MDA-MB-231): 25.5 µM (inactive)
GI50 (HCC 2998): 17.2 µM (inactive)
GI50 (KM12): 18.4 µM (inactive)
GI50 (EKVX): 14.3 µM (inactive)
GI50 (SF-295): 17.2 µM (inactive)
GI50 (RPMI-8226): 18.2 µM (inactive)
GI50 (COLO 205): 13.1 µM (inactive)
GI50 (SF-539): 17 µM (inactive)
GI50 (A549): 20.8 µM (inactive)
GI50 (MDA-MB-435): 7.76 µM (inactive)
GI50 (UACC-257): 25.8 µM (inactive)
GI50 (OVCAR-3): 16.3 µM (inactive)

CN1N=C(c2ccncc2)OC1c1cccc(F)c1 (stereo not given)
GI50 (LOX IMVI): > 100 µM (inactive)
GI50 (UACC-62): > 100 µM (inactive)
GI50 (CCRF-CEM): > 100 µM (inactive)
GI50 (SW-620): > 100 µM (inactive)
GI50 (OVCAR-4): > 100 µM (inactive)
GI50 (A498): > 100 µM (inactive)
GI50 (HOP-62): > 100 µM (inactive)
GI50 (K562): > 100 µM (inactive)
GI50 (MDA-MB-231): > 100 µM (inactive)
GI50 (HCC 2998): > 100 µM (inactive)
GI50 (KM12): > 100 µM (inactive)
GI50 (EKVX): > 100 µM (inactive)
GI50 (SF-295): > 100 µM (inactive)
GI50 (RPMI-8226): > 100 µM (inactive)
GI50 (COLO 205): > 100 µM (inactive)
GI50 (SF-539): > 100 µM (inactive)
GI50 (A549): > 100 µM (inactive)
GI50 (MDA-MB-435): > 100 µM (inactive)
GI50 (UACC-257): > 100 µM (inactive)
GI50 (OVCAR-3): > 100 µM (inactive)

CCOC(=O)c1sc2nc(SC)nc3c2c1NC(=O)CN3c1ccc(F)cc1
GI50 (LOX IMVI): 38.3 µM (inactive)
GI50 (UACC-62): 47 µM (inactive)
GI50 (CCRF-CEM): 30.1 µM (inactive)
GI50 (SW-620): 38.5 µM (inactive)
GI50 (OVCAR-4): 21.4 µM (inactive)
GI50 (A498): 47.6 µM (inactive)
GI50 (HOP-62): 15.7 µM (inactive)
GI50 (K562): 77.6 µM (inactive)
GI50 (MDA-MB-231): 26.9 µM (inactive)
GI50 (HCC 2998): 34.6 µM (inactive)
GI50 (KM12): > 100 µM (inactive)
GI50 (EKVX): 47.4 µM (inactive)
GI50 (SF-295): 20.1 µM (inactive)
GI50 (RPMI-8226): 65.9 µM (inactive)
GI50 (COLO 205): 68.9 µM (inactive)
GI50 (SF-539): 15.9 µM (inactive)
GI50 (A549): 18.6 µM (inactive)
GI50 (MDA-MB-435): 32.3 µM (inactive)
GI50 (UACC-257): 68.7 µM (inactive)
GI50 (OVCAR-3): 26.4 µM (inactive)

CN(CCCNC(=O)c1nn(-c2ccccc2)c2c1ccc1ccccc12)CCCNC(=O)c1nn(-c2ccccc2)c2c1ccc1ccccc12
GI50 (LOX IMVI): 1.73 µM (inactive)
GI50 (UACC-62): 1.6 µM (inactive)
GI50 (CCRF-CEM): 0.178 µM (active)
GI50 (SW-620): 1.95 µM (inactive)
GI50 (OVCAR-4): 1.82 µM (inactive)
GI50 (A498): 1.65 µM (inactive)
GI50 (HOP-62): 1.86 µM (inactive)
GI50 (K562): 1.29 µM (inactive)
GI50 (MDA-MB-231): 2.12 µM (inactive)
GI50 (HCC 2998): 1.31 µM (inactive)
GI50 (KM12): 2.16 µM (inactive)
GI50 (EKVX): 1.81 µM (inactive)
GI50 (SF-295): 1.87 µM (inactive)
GI50 (RPMI-8226): 1.47 µM (inactive)
GI50 (COLO 205): 1.65 µM (inactive)
GI50 (SF-539): 1.96 µM (inactive)
GI50 (A549): 1.84 µM (inactive)
GI50 (MDA-MB-435): 1.75 µM (inactive)
GI50 (UACC-257): 1.98 µM (inactive)
GI50 (OVCAR-3): 1.5 µM (inactive)

C=C1CC(C)(c2ccc(Nc3nc4ccccc4c4occc34)cc2)OC1=O (stereo not given)
GI50 (LOX IMVI): 1.95 µM (inactive)
GI50 (CCRF-CEM): 1.12 µM (active)
GI50 (OVCAR-4): 1.77 µM (inactive)
GI50 (A498): 18.9 µM (inactive)
GI50 (HOP-62): 12.5 µM (inactive)
GI50 (K562): 4.71 µM (inactive)
GI50 (MDA-MB-231): 1.75 µM (inactive)
GI50 (HCC 2998): 2.32 µM (inactive)
GI50 (KM12): 5.97 µM (inactive)
GI50 (EKVX): 12.1 µM (inactive)
GI50 (SF-295): 12.8 µM (inactive)
GI50 (RPMI-8226): 1.69 µM (inactive)
GI50 (COLO 205): 3.59 µM (inactive)
GI50 (SF-539): 2 µM (inactive)
GI50 (A549): 4.52 µM (inactive)
GI50 (MDA-MB-435): 1.91 µM (inactive)
GI50 (UACC-257): 0.0186 µM (active)
GI50 (OVCAR-3): 3.74 µM (inactive)

c1ccc2c(c1)ncn2CCn1ccnc1
GI50 (LOX IMVI): > 100 µM (inactive)
GI50 (UACC-62): > 100 µM (inactive)
GI50 (CCRF-CEM): > 100 µM (inactive)
GI50 (SW-620): > 100 µM (inactive)
GI50 (OVCAR-4): 15.8 µM (inactive)
GI50 (A498): > 100 µM (inactive)
GI50 (HOP-62): > 100 µM (inactive)
GI50 (K562): > 100 µM (inactive)
GI50 (MDA-MB-231): > 100 µM (inactive)
GI50 (HCC 2998): > 100 µM (inactive)
GI50 (KM12): > 100 µM (inactive)
GI50 (EKVX): > 100 µM (inactive)
GI50 (SF-295): > 100 µM (inactive)
GI50 (RPMI-8226): > 100 µM (inactive)
GI50 (COLO 205): > 100 µM (inactive)
GI50 (SF-539): > 100 µM (inactive)
GI50 (A549): > 100 µM (inactive)
GI50 (MDA-MB-435): > 100 µM (inactive)
GI50 (OVCAR-3): > 100 µM (inactive)
